The NIST ThermoML archive (doi:10.1016/j.jct.2006.03.018)
± gives the expanded uncertainty stated by the source.

Tests used:
[1] = xn = mol fraction of the nth substance listed; details: 101 kPa, Liquid
[2] = refractive index (Na D-line) (dimensionless); xn = mol fraction of the nth substance listed; details: 101 kPa, Liquid

COc1ccccc1 [anisole] + CCCCO
Details | mass density, 298.15 K [kg/m3] | mass density, 303.15 K [kg/m3] | mass density, 308.15 K [kg/m3] | refractive index, 298.15 K | refractive index, 303.15 K | refractive index, 308.15 K | speed of sound, 298.15 K [m/s] | viscosity, 298.15 K [mPa·s] | viscosity, 303.15 K [mPa·s] | viscosity, 308.15 K [mPa·s]
[1], x1 = 0.1064 | 824.95 ± 13 | 820.92 ± 13 | 816.89 ± 13 | – | – | – | 1258 ± 44 | 2.015 ± 0.24 | 1.778 ± 0.21 | 1.576 ± 0.19
[1], x1 = 0.1923 | 841.43 ± 12 | 837.28 ± 12 | 833.12 ± 12 | – | – | – | 1276 ± 44 | 1.702 ± 0.2 | 1.511 ± 0.18 | 1.352 ± 0.17
[1], x1 = 0.2988 | 861.78 ± 11 | 857.49 ± 11 | 853.21 ± 12 | – | – | – | 1298 ± 45 | 1.409 ± 0.17 | 1.261 ± 0.16 | 1.136 ± 0.14
[1], x1 = 0.3972 | 880.06 ± 10 | 875.69 ± 10 | 871.31 ± 11 | – | – | – | 1314 ± 45 | 1.285 ± 0.16 | 1.145 ± 0.14 | 1.051 ± 0.13
[1], x1 = 0.493 | 897.25 ± 9.4 | 892.77 ± 9.6 | 888.3 ± 9.8 | – | – | – | 1334 ± 45 | 1.129 ± 0.14 | 1.041 ± 0.13 | 0.939 ± 0.12
[1], x1 = 0.5968 | 922.83 ± 8.1 | 918.26 ± 8.3 | 913.66 ± 8.6 | – | – | – | 1347 ± 46 | 1.063 ± 0.14 | 0.968 ± 0.12 | 0.886 ± 0.12
[1], x1 = 0.7834 | 930.28 ± 25 | 925.7 ± 25 | 921.11 ± 25 | – | – | – | 1364 ± 46 | 0.985 ± 0.13 | 0.907 ± 0.12 | 0.844 ± 0.11
[1], x1 = 0.8332 | 957.86 ± 6.4 | 953.17 ± 6.7 | 948.47 ± 6.9 | – | – | – | 1376 ± 47 | 0.968 ± 0.12 | 0.893 ± 0.12 | 0.824 ± 0.11
[1], x1 = 0.892 | 969.05 ± 5.9 | 964.35 ± 6.1 | 959.64 ± 6.4 | – | – | – | 1390 ± 47 | 0.962 ± 0.12 | 0.884 ± 0.12 | 0.822 ± 0.11
[1], x1 = 1 | 989.15 ± 5 | 984.45 ± 5.2 | 979.73 ± 5.4 | – | – | – | 1412 ± 47 | 0.988 ± 0.13 | 0.913 ± 0.12 | 0.854 ± 0.11
[2], x1 = 0.1064 | – | – | – | 1.4108 ± 0.005 | 1.4069 ± 0.005 | 1.4031 ± 0.005 | – | – | – | –
[2], x1 = 0.1923 | – | – | – | 1.4221 ± 0.005 | 1.4197 ± 0.005 | 1.4173 ± 0.005 | – | – | – | –
[2], x1 = 0.2988 | – | – | – | 1.4354 ± 0.005 | 1.4332 ± 0.005 | 1.4307 ± 0.005 | – | – | – | –
[2], x1 = 0.3972 | – | – | – | 1.4473 ± 0.005 | 1.4449 ± 0.005 | 1.4421 ± 0.005 | – | – | – | –
[2], x1 = 0.493 | – | – | – | 1.4586 ± 0.005 | 1.4563 ± 0.005 | 1.4535 ± 0.005 | – | – | – | –
[2], x1 = 0.5968 | – | – | – | 1.4719 ± 0.02 | 1.4679 ± 0.02 | 1.4651 ± 0.02 | – | – | – | –
[2], x1 = 0.7834 | – | – | – | 1.4848 ± 0.02 | 1.4822 ± 0.02 | 1.4795 ± 0.02 | – | – | – | –
[2], x1 = 0.8332 | – | – | – | 1.4911 ± 0.005 | 1.4888 ± 0.005 | 1.4858 ± 0.005 | – | – | – | –
[2], x1 = 0.892 | – | – | – | 1.5027 ± 0.005 | 1.5005 ± 0.005 | 1.4966 ± 0.005 | – | – | – | –
[2], x1 = 1 | – | – | – | 1.5137 ± 0.005 | 1.5113 ± 0.005 | 1.5088 ± 0.005 | – | – | – | –

COc1ccccc1 [anisole] + CC(C)CCO
x1 = 1
Details | mass density, 298.15 K [kg/m3] | mass density, 303.15 K [kg/m3] | mass density, 308.15 K [kg/m3] | refractive index, 298.15 K | refractive index, 303.15 K | refractive index, 308.15 K | speed of sound, 298.15 K [m/s] | viscosity, 298.15 K [mPa·s] | viscosity, 303.15 K [mPa·s] | viscosity, 308.15 K [mPa·s]
[1] | 989.15 ± 2.7 | 984.45 ± 2.8 | 979.73 ± 2.9 | – | – | – | 1412 ± 47 | 0.988 ± 0.13 | 0.913 ± 0.12 | 0.854
[2] | – | – | – | 1.5137 ± 0.0025 | 1.5113 ± 0.0025 | 1.5088 ± 0.02 | – | – | – | –
